Where a chain is given by its changes, count along the chain named. Values joined by “and” are separate entries in the source; they are usually repeats but may differ in a detail not shown here. Identical values can stand only once. Like-named read-outs stand apart in the source and are kept apart here.
What was measured:
Assay type in all cases: biochemical
NUAK1 = molecular target: T1, NUAK1 (Homo sapiens, UniProt O60285); experiment: GST–NUAK1 Sakamototide peptide kinase assay; details: 200 μM Sakamototide, 100 μM [γ-32P]ATP; read-out: IC50 for NUAK1 (wild-type GST–NUAK1)
T1 construct: made in house; host or cells: HEK-293 cells, transient transfection of pEBG2T construct
T1 sequence (O60285 1-661): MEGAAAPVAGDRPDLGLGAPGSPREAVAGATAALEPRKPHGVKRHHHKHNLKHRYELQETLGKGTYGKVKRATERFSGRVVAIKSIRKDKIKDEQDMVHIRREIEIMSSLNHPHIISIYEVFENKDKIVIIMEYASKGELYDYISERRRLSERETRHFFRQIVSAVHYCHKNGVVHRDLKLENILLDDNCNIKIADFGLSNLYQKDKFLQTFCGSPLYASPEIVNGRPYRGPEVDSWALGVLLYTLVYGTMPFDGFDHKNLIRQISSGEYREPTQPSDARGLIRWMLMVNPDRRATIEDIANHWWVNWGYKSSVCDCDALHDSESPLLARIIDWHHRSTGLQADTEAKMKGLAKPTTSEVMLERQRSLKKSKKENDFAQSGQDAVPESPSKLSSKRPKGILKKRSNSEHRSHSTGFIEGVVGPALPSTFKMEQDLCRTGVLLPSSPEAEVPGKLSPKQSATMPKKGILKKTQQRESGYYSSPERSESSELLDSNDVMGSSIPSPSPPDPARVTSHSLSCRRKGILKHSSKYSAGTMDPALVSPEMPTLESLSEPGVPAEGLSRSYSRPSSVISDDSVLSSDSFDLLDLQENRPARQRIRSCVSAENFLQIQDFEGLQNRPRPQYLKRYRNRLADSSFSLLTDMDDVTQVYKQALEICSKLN
Description: (§1) Active GST–NUAK1, GST–NUAK1[A195T] and GST–NUAK2 enzymes were purified using glutathione–Sepharose from HEK-293 cell lysates 36–48 h following the transient transfection of pEBG2T mammalian constructs expressing N-terminal GST-tagged NUAK1, NUAK1[A195T] or NUAK2. For peptide kinase assays, 96-well plates were used, and each reaction was performed in triplicate. Each reaction was set up in a total volume of 50 μl containing 100 ng of NUAK1 (wild-type or A195T mutant) or NUAK2 in 50 mM Tris/HCl (pH 7.5), 0.1 mM EGTA, 10 mM magnesium acetate, 200 μM Sakamototide, 0.1 mM [γ-^32P]ATP (450–500 c.p.m./pmol) and the indicated concentrations of inhibitors dissolved in DMSO. After incubation for 30 min at 30°C, reactions were terminated by adding 25 mM (final) EDTA to chelate the magnesium. Then, 40 μl of the reaction mix was spotted on to P81 paper and immersed in 50 mM orthophosphoric acid. Samples were washed three times in 50 mM orthophosphoric acid followed by a single acetone rinse and air drying. The incorporation of [γ-^32P]ATP into Sakamototide was quantified by Cerenkov counting. The values were expressed as a percentage of the DMSO control. IC50 curves were developed and IC50 values were calculated using GraphPad Prism software.

NUAK1[A195T] = molecular target: T2, NUAK1[A195T] (Homo sapiens, UniProt O60285, A195T); experiment: GST–NUAK1[A195T] Sakamototide peptide kinase assay; details: for IC50: 200 μM Sakamototide, 100 μM [γ-32P]ATP; for Reduction of potency (resistance) by the NUAK1 A195T mutation: NUAK1[A195T] versus wild-type NUAK1
T2 construct: made in house; host or cells: HEK-293 cells, transient transfection of pEBG2T construct
T2 sequence (O60285 1-661 A195T): T1 sequence (O60285 1-661) with A195T
Description: as §1

NUAK2 = molecular target: T3, NUAK2 (Homo sapiens, UniProt Q9H093); experiment: GST–NUAK2 Sakamototide peptide kinase assay; details: for Inhibition of NUAK2 (in words): results not shown; for IC50: 200 μM Sakamototide, 100 μM [γ-32P]ATP
T3 construct: made in house; host or cells: HEK-293 cells, transient transfection of pEBG2T construct
T3 sequence (Q9H093 1-628): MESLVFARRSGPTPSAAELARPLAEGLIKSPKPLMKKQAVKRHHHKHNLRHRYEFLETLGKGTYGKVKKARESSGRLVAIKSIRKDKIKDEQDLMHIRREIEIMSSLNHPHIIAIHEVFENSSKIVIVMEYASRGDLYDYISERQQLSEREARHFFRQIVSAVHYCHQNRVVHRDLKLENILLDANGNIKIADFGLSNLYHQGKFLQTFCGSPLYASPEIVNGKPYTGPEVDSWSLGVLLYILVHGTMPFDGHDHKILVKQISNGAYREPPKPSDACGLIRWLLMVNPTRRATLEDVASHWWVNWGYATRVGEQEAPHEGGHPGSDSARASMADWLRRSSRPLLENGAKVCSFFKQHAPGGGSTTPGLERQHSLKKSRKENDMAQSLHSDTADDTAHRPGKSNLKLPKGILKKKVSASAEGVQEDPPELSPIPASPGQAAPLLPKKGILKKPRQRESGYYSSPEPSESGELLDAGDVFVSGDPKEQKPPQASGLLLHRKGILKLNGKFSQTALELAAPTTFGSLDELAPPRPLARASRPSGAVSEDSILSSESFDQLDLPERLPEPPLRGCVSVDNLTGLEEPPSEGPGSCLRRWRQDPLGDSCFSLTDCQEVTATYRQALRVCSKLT
Description: as §1

ABL = ABL (Homo sapiens, UniProt P00519); experiment: Kinase profiling; details: for Inhibition of ABL in profiling (in words): 1 μM; for ABL activity, percentage of DMSO control: 0.1 or 1 μM inhibitor, mean of triplicate
ABL, sequence (P00519 whole entry): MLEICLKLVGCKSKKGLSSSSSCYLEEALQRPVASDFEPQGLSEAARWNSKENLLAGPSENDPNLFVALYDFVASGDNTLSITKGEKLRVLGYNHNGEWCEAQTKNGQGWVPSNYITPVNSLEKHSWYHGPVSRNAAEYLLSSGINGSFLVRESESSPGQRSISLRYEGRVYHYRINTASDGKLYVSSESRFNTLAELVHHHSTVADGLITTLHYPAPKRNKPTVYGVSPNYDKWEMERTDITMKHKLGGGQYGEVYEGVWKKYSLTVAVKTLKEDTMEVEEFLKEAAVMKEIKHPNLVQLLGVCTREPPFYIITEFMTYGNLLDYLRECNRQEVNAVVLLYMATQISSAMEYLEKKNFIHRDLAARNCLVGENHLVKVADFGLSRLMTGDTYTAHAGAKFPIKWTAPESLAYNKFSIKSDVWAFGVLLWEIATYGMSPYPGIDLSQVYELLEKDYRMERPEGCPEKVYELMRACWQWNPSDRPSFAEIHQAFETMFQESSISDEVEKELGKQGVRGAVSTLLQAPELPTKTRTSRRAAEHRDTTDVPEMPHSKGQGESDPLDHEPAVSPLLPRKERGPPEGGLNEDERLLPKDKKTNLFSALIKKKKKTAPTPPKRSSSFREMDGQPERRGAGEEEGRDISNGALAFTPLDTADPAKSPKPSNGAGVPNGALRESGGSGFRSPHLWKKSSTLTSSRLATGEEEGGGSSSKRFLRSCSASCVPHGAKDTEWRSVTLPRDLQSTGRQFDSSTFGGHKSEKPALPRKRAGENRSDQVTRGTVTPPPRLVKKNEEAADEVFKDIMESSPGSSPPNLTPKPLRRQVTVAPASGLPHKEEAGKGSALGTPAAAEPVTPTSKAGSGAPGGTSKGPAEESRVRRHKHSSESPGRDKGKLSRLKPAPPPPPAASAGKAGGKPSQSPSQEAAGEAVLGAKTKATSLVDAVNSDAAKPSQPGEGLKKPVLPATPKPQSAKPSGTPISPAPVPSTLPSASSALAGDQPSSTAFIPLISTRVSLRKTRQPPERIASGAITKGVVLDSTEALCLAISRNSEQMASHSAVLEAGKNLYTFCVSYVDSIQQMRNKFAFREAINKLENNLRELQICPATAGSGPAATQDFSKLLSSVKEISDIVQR
Description: Kinase inhibitor specificity profiling assays were carried out at The International Centre for Protein Kinase Profiling (http://www.kinase-screen.mrc.ac.uk/) against a panel of 140 protein kinases as described previously. Results are presented as a percentage of kinase activity in DMSO control reactions. Protein kinases were assayed in vitro with 0.1 or 1 μM of the inhibitors and the results are presented as an average of triplicate reactions±S.D. or in the form of comparative histograms.

Structure (SMILES) | IC50 (NUAK1) [nM] | IC50 (NUAK1[A195T]) [nM] | Reduction of potency (resistance) by the NUAK1 A195T mutation (NUAK1[A195T]) | Inhibition of NUAK2 (in words) (NUAK2) | Inhibition of ABL in profiling (in words) (ABL) | IC50 (NUAK2; bound given in text, read-out: IC50 for NUAK2) [nM] | Higher potency for NUAK1 than NUAK2 (NUAK2; NUAK1 versus NUAK2) [fold] | ABL activity, percentage of DMSO control (ABL) [percentage] | IC50 (NUAK2; read-out: IC50 for NUAK2 (wild-type GST–NUAK2)) [nM]
CN1C(=O)c2ccccc2N(C)c2nc(Nc3cnn(C4CCNCC4)c3)ncc21 [XMD-17-51] | 1.5 | 600 | > 50 fold | Neither compound significantly inhibited | inhibited |  |  |  | 
Cc1nc(Nc2cnn(C3CCNCC3)c2)nc2c1N(C)C(=O)c1cc3ccccc3cc1N2C [HTH-01-015] | 100 | 5890 | ~ 50 fold and ~ 60 fold |  |  | > 10000 | > 100 | 110 | 
CN1C(=O)c2cc3ccccc3cc2N(C)c2nc(Nc3cnn(C4CCNCC4)c3)ncc21 [XMD-18-42] | 30 | 1500 | > 50 fold | Neither compound significantly inhibited | inhibited |  |  |  | 
CCC(=O)Nc1cccc(Oc2nc(Nc3ccc(N4CCN(C)CC4)cc3OC)ncc2Cl)c1 [WZ4003] | 20 | 900 | ~ 50 fold and 45 fold |  |  |  |  | 104 | 100

— paper PMC3969223, “Characterization of WZ4003 and HTH-01-015 as selective inhibitors of the LKB1-tumour-suppressor-activated NUAK kinases” (Biochemical Journal, 2013)
